≈ marks a conversion by molar mass, not a printed value.

Test [1] relates to Mycobacterium tuberculosis. As to the kind of experiment: Antimycobacterial activity against Mycobacterium tuberculosis H37Rv cultured in GAS medium after 4 days by microplate Alamar blue assay. The test is classed as functional. Conditions: 96 h. A general note: The colour change of resazurin is a common sign of viable cells or microbes.
Test [2] deals with Mycobacterium tuberculosis. As to the kind of experiment: Antimycobacterial activity against Mycobacterium tuberculosis H37Rv cultured in 7H12 medium after 4 days by microplate Alamar blue assay. The test is classed as functional. Particulars: 96 h.
In test [3] the test system is Bacillus subtilis. As to the kind of experiment: Antibacterial activity against Bacillus subtilis ATCC 6633. The test is classed as functional.
Test [4] has as its system Mycolicibacterium vaccae. As to the kind of experiment: Antibacterial activity against Mycobacterium vaccae IMET 10670. Type of test: functional.
For test [5], the system named is Bacillus subtilis. As to the kind of experiment: Antibacterial activity against Bacillus subtilis ATCC 6633 assessed as zone of growth inhibition by agar diffusion assay. The test is classed as functional.
Test [6] relates to Micrococcus luteus. As to the kind of experiment: Antibacterial activity against Micrococcus luteus ATCC 10240 assessed as zone of growth inhibition by agar diffusion assay. The test is classed as functional.
The subject of test [7] is Mycolicibacterium vaccae. In words: Antibacterial activity against Mycobacterium vaccae IMET 10670 assessed as zone of growth inhibition by agar diffusion assay. The test is classed as functional. For orientation: A growth-free zone around the sample is the usual read-out of agar diffusion tests.
Test [8] concerns Micrococcus luteus. As to the kind of experiment: Antibacterial activity against Micrococcus luteus ATCC 10240. The test is classed as functional.
The test system of test [9] is Staphylococcus aureus. In words: Antibacterial activity against Staphylococcus aureus SG511. The test is classed as functional.
In test [10] the test system is Staphylococcus aureus. As to the kind of experiment: Antibacterial activity against Staphylococcus aureus SG511 assessed as zone of growth inhibition by agar diffusion assay. The test is classed as functional.
Test [11] has as its system Bacillus subtilis. As to the kind of experiment: microbe, parasite or virus in culture. Particulars: ATCC 6633, read-out: IZ.
Description: Antibacterial activity against Bacillus subtilis ATCC 6633 assessed as zone of growth inhibition at 1.66 ug/ml by agar diffusion assay
Test [12] deals with Mycolicibacterium vaccae. As to the kind of experiment: Antibacterial activity against Mycobacterium vaccae IMET 10670 assessed as zone of growth inhibition at 1.66 ug/ml by agar diffusion assay. The test is classed as functional. Conditions: read-out: IZ.
Test [13] relates to Staphylococcus aureus. As to the kind of experiment: microbe, parasite or virus in culture. Conditions: SG511, read-out: IZ.
Description: Antibacterial activity against Staphylococcus aureus SG511 assessed as zone of growth inhibition at 1.66 ug/ml by agar diffusion assay
Test [14] concerns Micrococcus luteus. In words: Antibacterial activity against Micrococcus luteus ATCC 10240 assessed as zone of growth inhibition at 1.66 ug/ml by agar diffusion assay. Type of test: functional. Conditions: read-out: IZ.

As usually defined, the MIC is the lowest concentration found to suppress growth. Read a low MIC as a more susceptible organism. Turning to `Cc1ccn2c(C(=O)NCCCC(=O)OCc3ccccc3)c(C)nc2c1`, the MIC in [1] was greater than 10 µM; in [2] it was 5.85 µM (≈ 2.14 µg/mL).

Consider `O=C(Cc1ccccc1)N[C@@H]1C(=O)N2C(C(=O)O)=C(CN3CCN(c4nc(=O)c5cc(C(F)(F)F)cc([N+](=O)[O-])c5s4)CC3)CS[C@H]12`, for which the MIC was less than 0.003 µM against Bacillus subtilis [3]; 48.9 µM (≈ 33.8 µg/mL) in test [1]; 12.5 µM (≈ 8.63 µg/mL) in the test with Mycolicibacterium vaccae [4]; 1.56 µM (≈ 1.08 µg/mL) against Micrococcus luteus [8]; 0.4 µM (≈ 0.276 µg/mL) against Staphylococcus aureus [9]; 86.8 µM (≈ 60 µg/mL) in [2]. Also, the “inhibition zone (IZ)” value with Bacillus subtilis [5] was 41 mm; in the test with Micrococcus luteus [6] it was 48 mm; in the test with Mycolicibacterium vaccae [7], 33 mm; in the test with Staphylococcus aureus [10], 32 mm.

With `COc1ccc(COC(=O)C2=C(CN3CCN(c4nc(=O)c5cc(C(F)(F)F)cc([N+](=O)[O-])c5s4)CC3)CS[C@@H]3[C@H](NC(=O)Cc4ccccc4)C(=O)N23)cc1`, the minimal inhibitory concentration (MIC) in the test with Bacillus subtilis [3] is 0.1 µM (≈ 0.0811 µg/mL); in [1] it was greater than 100 µM; against Staphylococcus aureus [9], 1.56 µM (≈ 1.26 µg/mL); in test [2] it was greater than 100 µM. Moreover, the “inhibition zone (IZ)” value is 36 mm in the test with Bacillus subtilis [5], 24 mm in the test with Micrococcus luteus [6], 24 mm in the test on Mycolicibacterium vaccae [7] and 37 mm in the test with Staphylococcus aureus [10].

As to `O=C(Cc1ccccc1)N[C@@H]1C(=O)N2C(C(=O)O)=C(CN3CCN(c4cc5c(cc4F)c(=O)c(C(=O)O)cn5C4CC4)CC3)CS[C@H]12`, the MIC against Bacillus subtilis [3] is less than 0.1 µM; against Micrococcus luteus [8] it was 3.13 µM (≈ 2.07 µg/mL); in the test with Staphylococcus aureus [9], 0.2 µM (≈ 0.132 µg/mL).

On to `CC(C)(C)OC(=O)C1=C(COC(=O)N2CCN(c3nc(=O)c4cc(C(F)(F)F)cc([N+](=O)[O-])c4s3)CC2)CS[C@@H]2[C@H](NC(=O)Cc3ccccc3)C(=O)N12`, for which the MIC in test [1] turned out to be 63.5 µM (≈ 50.2 µg/mL); in [2], 1.49 µM (≈ 1.18 µg/mL).

Take `CO[C@H]1/C=C/O[C@@]2(C)Oc3c(C)c(O)c4c(O)c(c(/C=N/N5CCN(C)CC5)c(O)c4c3C2=O)NC(=O)/C(C)=C\C=C\[C@H](C)[C@H](O)[C@@H](C)[C@@H](O)[C@@H](C)[C@H](OC(C)=O)[C@@H]1C` [RIFAMPIN]: the figures for the MIC in [1] and in test [2] were 0.04 µM (≈ 0.0329 µg/mL) and 0.05 µM (≈ 0.0411 µg/mL), respectively.

With `O=C(O)c1cn(C2CC2)c2cc(N3CCNCC3)c(F)cc2c1=O` [CIPROFLOXACIN], it took 0.15 µM (≈ 0.0497 µg/mL) to inhibit growth with Bacillus subtilis [3] (MIC). For the same compound, the zone of inhibition at 1.66 µg/mL with Bacillus subtilis [11] was determined as 20 mm; with Mycolicibacterium vaccae [12], 17 mm; in the test with Staphylococcus aureus [13], 20 mm; in the test on Micrococcus luteus [14] it was 0 mm.

For the compound `C[C@H]1COC2(CCN(c3nc(=O)c4cc(C(F)(F)F)cc([N+](=O)[O-])c4s3)CC2)O1` [BTZ-043], the MIC was less than 0.004 µM in test [1]; 0.03 µM (≈ 0.0129 µg/mL) against Mycolicibacterium vaccae [4]; greater than 200 µM with Micrococcus luteus [8]; greater than 200 µM in the test with Staphylococcus aureus [9]; less than 0.004 µM in test [2].

Take `Cc1ccn2c(C(=O)N3CCN(c4nc(=O)c5cc(C(F)(F)F)cc([N+](=O)[O-])c5s4)CC3)c(C)nc2c1`: the figures for the MIC in test [1] and in test [2] were 1.43 µM (≈ 0.761 µg/mL) and 2.1 µM (≈ 1.12 µg/mL), respectively.

As to `O=C(Cc1ccccc1)N[C@@H]1C(=O)N2C(C(=O)O)=C(COC(=O)N3CCN(c4nc(=O)c5cc(C(F)(F)F)cc([N+](=O)[O-])c5s4)CC3)CS[C@H]12`, the MIC came out at 0.8 µM (≈ 0.588 µg/mL) in the test on Bacillus subtilis [3]; 12 µM (≈ 8.79 µg/mL) in test [1]; 0.2 µM (≈ 0.147 µg/mL) in the test on Mycolicibacterium vaccae [4]; 12.5 µM (≈ 9.18 µg/mL) against Staphylococcus aureus [9]; 4.63 µM (≈ 3.4 µg/mL) in [2]. Besides, the “inhibition zone (IZ)” value with Bacillus subtilis [5] was found to be 41 mm; in the test with Micrococcus luteus [6], 24 mm; in the test with Mycolicibacterium vaccae [7] it was 48 mm; in the test on Staphylococcus aureus [10], 27 mm.

Consider `CC(C)(C)OC(=O)C1=C(COC(=O)OC(Cl)C(Cl)(Cl)Cl)CS[C@@H]2[C@H](NC(=O)Cc3ccccc3)C(=O)N12` (stereo partly specified), for which the minimum inhibitory concentration (MIC) was 22.2 µM (≈ 13.7 µg/mL) in test [1] and greater than 50 µM in test [2].

As for `Cc1ccn2c(C(=O)NCc3ccc(C(=O)OCc4ccccc4)cc3)c(C)nc2c1`, the MIC in test [1] was 4.1 µM (≈ 1.7 µg/mL); in test [2], 0.21 µM (≈ 0.0868 µg/mL).

As to `Cc1ccn2c(C(=O)NCCC(=O)OCc3ccccc3)c(C)nc2c1`, the MIC in test [1] and in test [2] was greater than 10 µM in each case.

Turning to `Cc1ccn2c(C(=O)NCCC(=O)N3CCN(c4nc(=O)c5cc(C(F)(F)F)cc([N+](=O)[O-])c5s4)CC3)c(C)nc2c1`, the MIC in [1] and in test [2] was greater than 10 µM throughout.

Turning to `CC(C)(C)OC(=O)N1CCN(c2nc(=O)c3cc(C(F)(F)F)cc([N+](=O)[O-])c3s2)CC1`, the MIC is less than 0.2 µM in [1] and 0.28 µM (≈ 0.129 µg/mL) in test [2].

As to `Cc1ccn2c(C(=O)NCCCC(=O)N3CCN(c4nc(=O)c5cc(C(F)(F)F)cc([N+](=O)[O-])c5s4)CC3)c(C)nc2c1`, the MIC in [1] and in [2] was greater than 10 µM throughout.

Turning to `CC(C)(C)OC(=O)C1=C(CN2CCN(c3nc(=O)c4cc(C(F)(F)F)cc([N+](=O)[O-])c4s3)CC2)CS[C@@H]2[C@H](NC(=O)Cc3ccccc3)C(=O)N12`, the MIC in the test on Bacillus subtilis [3] amounted to 1.56 µM (≈ 1.16 µg/mL); in [1], 1.51 µM (≈ 1.13 µg/mL); in the test on Mycolicibacterium vaccae [4], 0.8 µM (≈ 0.597 µg/mL); in the test with Staphylococcus aureus [9], 12.5 µM (≈ 9.33 µg/mL); in [2], 2.03 µM (≈ 1.52 µg/mL). The “inhibition zone (IZ)” value came to 27 mm in the test with Bacillus subtilis [5], 13 mm in the test with Micrococcus luteus [6], 29 mm with Mycolicibacterium vaccae [7] and 23 mm with Staphylococcus aureus [10].

As for `Cc1ccn2c(C(=O)NCc3ccc(C(=O)N4CCN(c5nc(=O)c6cc(C(F)(F)F)cc([N+](=O)[O-])c6s5)CC4)cc3)c(C)nc2c1`, the MIC in test [1] and in test [2] was greater than 10 µM throughout.
